Source: paper PMC4301837, “Aldosterone synthase inhibition: cardiorenal protection in animal disease models and translation of hormonal effects to human subjects” (Journal of Translational Medicine, 2014)
pEC50, pIC50: −log10 of the molar value. Read-outs that look alike come from different tables or passages of the source.

Experiments:
[1] = human, 0.5–3 mg once daily oral
[2] = system: ACTH-stimulated aldosterone and corticosterone synthesis; assay: animal or person; conditions: Rattus norvegicus; for ED50: po
[3] = system: patients with primary aldosteronism; conditions: 14 patients, 0.5 mg and 1 mg twice daily, 4 weeks; cited from earlier work
[4] = dogs, ref D. Rigel, personal communication, cited from earlier work
[5] = system: Ang-II-stimulated aldosterone synthesis; assay: animal or person; conditions: Rattus norvegicus, po, read-out: ED50 for inhibiting Ang-II-stimulated aldosterone response
[6] = system: dTG rats overexpressing human renin and angiotensinogen; assay: Survival study in young dTG rats; format: in vivo, rat
[7] = target: 11β-hydroxylase (CYP11B1), rat adrenal homogenate (Rattus norvegicus, UniProt P15393); assay: biochemical
Chain of 11β-hydroxylase (CYP11B1), rat adrenal homogenate (P15393 25-499): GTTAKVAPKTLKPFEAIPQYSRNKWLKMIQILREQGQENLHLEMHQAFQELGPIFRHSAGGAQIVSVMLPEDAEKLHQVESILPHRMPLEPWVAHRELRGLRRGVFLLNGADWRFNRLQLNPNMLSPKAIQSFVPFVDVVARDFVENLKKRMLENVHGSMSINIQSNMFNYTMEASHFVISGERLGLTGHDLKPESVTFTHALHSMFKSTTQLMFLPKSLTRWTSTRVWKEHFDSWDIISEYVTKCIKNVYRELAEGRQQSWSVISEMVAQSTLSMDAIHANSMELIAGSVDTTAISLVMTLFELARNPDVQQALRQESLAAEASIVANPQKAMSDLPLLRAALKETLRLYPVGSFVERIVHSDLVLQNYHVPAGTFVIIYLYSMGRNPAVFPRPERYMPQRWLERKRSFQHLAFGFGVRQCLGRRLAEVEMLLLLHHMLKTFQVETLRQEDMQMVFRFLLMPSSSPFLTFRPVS

[8] = system: healthy male volunteers; assay: Human safety and tolerability; format: in vivo
[9] = system: human CYP11B2; parameters: method as in PMID 24899257; conditions: recombinant hamster fibroblasts expressing human CYP11B1 and CYP11B2; read-out: IC50, inhibition of aldosterone synthesis; cited from earlier work
[10] = in vitro; conditions: human, plasma
[11] = clinical; conditions: male, human, plasma; for half-life: t½
[12] = system: dTG rats overexpressing human renin and angiotensinogen; format: in vivo; conditions: dTG rats, LCI699 3–100 mg/kg/day
[13] = system: patients with Cushing’s disease; conditions: 12 patients, 2–50 mg twice daily, cited from earlier work
[14] = oral, single-dose phase, doses up to 200 mg

## N#Cc1ccc([C@H]2CCc3cncn32)c(F)c1 [LCI699]
[1]
  Tmax: 1.00 to 1.25 h
[2]; read-out: ED50 for inhibiting ACTH-stimulated aldosterone
  ED50: 1.1 mg/kg
[2]; read-out: ED50 for inhibiting ACTH-stimulated corticosterone
  ED50: 73 mg/kg
[2]; read-out: EC50 for inhibiting ACTH-stimulated aldosterone
  pEC50: 6.11
[2]; read-out: EC50 for inhibiting ACTH-stimulated corticosterone
  pEC50: 4.44
[3]
  effect on plasma and urinary aldosterone levels: effectively reduced
  mean decrease in ambulatory systolic blood pressure: 4 mmHg
[4]; 1 mg/kg oral dose
  oral bioavailability: 96%
[4]
  half-life: 0.6 to 3.6 h
[5]
  ED50: 0.6 mg/kg
[6]; young dTG rats without established cardiorenal disease, P < 0.01
  doses at which survival was significantly prolonged: ≥ 10 mg/kg/day
[6]; young dTG rats, dose–median survival curves
  maximum median survival time: 9.5 weeks
[7]
  pIC50: 5.52
[8]; LCI699 0.5 mg, multiple-dose phase
  subjects with plasma sodium levels at or below 135 mmol/L: two
[8]; LCI699 3 mg, multiple-dose
  subjects with pre-specified markers of hypoaldosteronism (mild hyponatremia, postural tachycardia, decreased body weight), discontinued: three
[8]; LCI699 3 mg, multiple-dose phase
  subjects with plasma sodium levels at or below 135 mmol/L: four
[8]; healthy subjects, single doses up to 200 mg, multiple doses
  tolerability: well tolerated
[8]; multiple-dose phase, LCI699 10 mg
  adverse events considered severe (abnormal ACTH-stimulation test): only one adverse event
[8]; single or multiple doses
  changes in supine systolic or diastolic blood pressure or heart rate compared with placebo: no consistent changes
[9]
  pIC50: […]
[10]
  fraction unbound: 0.734
[11]; [14]
  Tmax: ~1 h
  half-life: ~4 h
[11]; oral, after both single and multiple doses
  half-life: ~4 h
[11]; po, 0.5–3 mg once daily oral
  Tmax: ~1 h
[12]
  effect on urinary corticosterone excretion: reduced
[12]; eplerenone 30 mg/kg
  effect on LV fractional shortening: dose-dependently increased
  effect on myocardial cell size: normalized
[12]; eplerenone 30 mg/kg/day
  effect on BUN levels: dose-dependently normalized
  effect on mean arterial pressure: neither LCI699 nor eplerenone normalized arterial pressure
  effect on serum potassium: corrected serum potassium in a dose-dependent manner
  effect on urinary albumin excretion: dose-dependently normalized
  effect on urinary aldosterone excretion: reduced
  effect on urine output: dose-dependently normalized
[12]; eplerenone 30 mg/kg, data not shown
  effect on LV weight: reduced
[12]; data not shown
  effect on water intake: dose-dependently normalized
[13]; 70 days
  patients with urinary free cortisol below upper limit of normal: 11 patients
[13]
  tolerability: well tolerated
